Results from patent US20060234909A1, “Compositions and methods for increasing drug efficiency” (priority 2003, published 2006).
Like-named read-outs stand apart in the source and are kept apart here. Ends that are not written are not given here.

Assays:
[1] = molecular target: T1, Human Src (Homo sapiens, UniProt P12931); assay: Src kinase assay (PKLight ATP utilization, substrate phosphorylation as % of parent peptide); format: biochemical
T1 construct: purchased Upstate (Charlottesville, Va.) 14-326
T1 sequence (P12931 whole entry): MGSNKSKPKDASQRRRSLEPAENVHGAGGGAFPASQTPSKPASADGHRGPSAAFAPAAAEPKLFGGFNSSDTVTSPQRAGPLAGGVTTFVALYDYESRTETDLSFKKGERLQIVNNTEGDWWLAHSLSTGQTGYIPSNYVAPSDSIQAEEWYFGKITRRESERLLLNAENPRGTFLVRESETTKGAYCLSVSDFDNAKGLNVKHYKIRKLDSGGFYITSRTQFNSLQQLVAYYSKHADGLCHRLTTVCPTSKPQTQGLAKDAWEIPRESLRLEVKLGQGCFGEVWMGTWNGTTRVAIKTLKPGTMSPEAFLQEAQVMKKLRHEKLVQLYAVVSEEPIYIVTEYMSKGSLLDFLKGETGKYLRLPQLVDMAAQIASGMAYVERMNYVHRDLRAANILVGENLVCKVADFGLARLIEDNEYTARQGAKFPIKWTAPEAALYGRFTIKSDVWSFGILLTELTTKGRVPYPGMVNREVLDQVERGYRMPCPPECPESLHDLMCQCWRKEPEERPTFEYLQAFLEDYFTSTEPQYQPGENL
How it was run: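 Recombinant human Src or Akt phosphorylated peptide or drug–peptide conjugate substrates (25, 50, 100 μM) at 30° C for 2–5 hours, in Tris-HCl pH 7.5 buffer with MgCl2 and ATP. ATP use was read by luciferase luminescence against no-substrate and no-ATP controls. Phosphorylation was taken from the linear range and expressed as % of the parent peptide.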

[2] = test system: tubulin; assay: Fluorescence-based tubulin polymerization assay (MPA; enhancement for paclitaxel, inhibition for vinblastine); format: biochemical
How it was run: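 Tubulin polymerisation was followed by fluorescence (ex 360/em 405 nm) with 1 mg/ml BSA in all assays. For paclitaxel conjugates, glycerol was omitted. Parent drugs and conjugates were tested at 0.75, 1.5, 3 and 10 micromolar final, and values come from the linear range of the dose responses.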

[3] = test system: MCF-7 breast carcinoma; assay: Cytotoxicity assay (monolayer), MCF-7; format: cell-based; conditions: MCF7, ML (monolayer), read-out: MCF7 (EC50 Ave) ML;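 further: cells treated 72 h with 6-8 compound doses versus DMSO vehicle controls, EC50 fitted by 4-parameter dose-response curves, averaged across all tests and lots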
[4] = test system: HT-29 colorectal carcinoma; assay: Cytotoxicity assay (monolayer), HT-29; format: cell-based; conditions: HT29, ML (monolayer), read-out: HT29 (EC50 Ave) ML;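 further: monolayer cultures tested in triplicate, compound exposure for three days against DMSO vehicle controls, EC50 fitted from dose-response curves and averaged across all tests and lots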
[5] = Serum stability in RPMI1640 medium containing 10% fetal bovine serum; format: in vitro ADME; conditions: for remaining at 4 h, 10 μM / remaining at 8 h, 10 μM / remaining at 24 h, 10 μM / remaining at 72 h, 10 μM / half-life at 10 μM: bovine; for remaining at 4 h, 10 μM: read-out: Relative Percent Remaining at 4 hr; for remaining at 8 h, 10 μM: read-out: Relative Percent Remaining at 8 hr; for remaining at 24 h, 10 μM: read-out: Relative Percent Remaining at 24 hr; for remaining at 72 h, 10 μM: read-out: Relative Percent Remaining at 72 hr; for half-life at 10 μM: read-out: T½ (converted)
Protocol: The stability of conjugates was measured in RPMI1640 cell culture medium containing 10% fetal bovine serum. The serum-containing medium was pre-warmed at 37° C. for 3 min prior to addition of test articles. Test articles, prepared in DMSO as 5 mM stocks, were added to the cell culture media to a final concentration of 10 μM. Aliquots ([…]) were withdrawn in triplicate at 0, 4, 8, 24 and 72 hours and combined with the same volume of ice-cold acetonitrile to terminate the reaction. The mixture was centrifuged at 2,000×g for 10 minutes. One part of the supernatant was mixed with four parts of deionized water to bring down the percentage of organic solvent. The diluted samples were then assayed by LC/MS for the test article. The natural log of the percent remaining was plotted versus time. A linear fit was used to determine the rate constant. The fit was truncated after the percent of remaining test article was less than 10%. The elimination half-lives associated with the disappearance of test articles were determined to compare their relative stability. The assays were carried out by Absorption Systems (Exton, Pa.).

[6] = test system: HUVEC; assay: Cytotoxicity assay (monolayer), HUVEC; format: cell-based; conditions: ML (monolayer), read-out: HUVEC (EC50 Ave) ML
[7] = test system: Normal human foreskin fibroblasts (HFF)
[8] = test system: MCF-7 cells
[9] = test system: HT-29 cells
[10] = in vitro; conditions: human
[11] = test system: tumor cells vs normal cells; assay: Cytotoxic selectivity index (normal cells in monolayer vs tumor cells in soft agar)
[12] = test system: Normal human foreskin fibroblasts (HFF); assay: cells; conditions: Fibroblast
[13] = test system: MCF-7 cells; assay: cells; conditions: Homo sapiens
[14] = test system: HT-29 cells; assay: cells; conditions: Homo sapiens
[15] = molecular target: Met kinase (Homo sapiens, UniProt P08581); conditions: Hays and Watowich 2003; read-out: Km as substrate for Met kinase; cited from earlier work
Sequence of Met kinase (P08581 25-1390): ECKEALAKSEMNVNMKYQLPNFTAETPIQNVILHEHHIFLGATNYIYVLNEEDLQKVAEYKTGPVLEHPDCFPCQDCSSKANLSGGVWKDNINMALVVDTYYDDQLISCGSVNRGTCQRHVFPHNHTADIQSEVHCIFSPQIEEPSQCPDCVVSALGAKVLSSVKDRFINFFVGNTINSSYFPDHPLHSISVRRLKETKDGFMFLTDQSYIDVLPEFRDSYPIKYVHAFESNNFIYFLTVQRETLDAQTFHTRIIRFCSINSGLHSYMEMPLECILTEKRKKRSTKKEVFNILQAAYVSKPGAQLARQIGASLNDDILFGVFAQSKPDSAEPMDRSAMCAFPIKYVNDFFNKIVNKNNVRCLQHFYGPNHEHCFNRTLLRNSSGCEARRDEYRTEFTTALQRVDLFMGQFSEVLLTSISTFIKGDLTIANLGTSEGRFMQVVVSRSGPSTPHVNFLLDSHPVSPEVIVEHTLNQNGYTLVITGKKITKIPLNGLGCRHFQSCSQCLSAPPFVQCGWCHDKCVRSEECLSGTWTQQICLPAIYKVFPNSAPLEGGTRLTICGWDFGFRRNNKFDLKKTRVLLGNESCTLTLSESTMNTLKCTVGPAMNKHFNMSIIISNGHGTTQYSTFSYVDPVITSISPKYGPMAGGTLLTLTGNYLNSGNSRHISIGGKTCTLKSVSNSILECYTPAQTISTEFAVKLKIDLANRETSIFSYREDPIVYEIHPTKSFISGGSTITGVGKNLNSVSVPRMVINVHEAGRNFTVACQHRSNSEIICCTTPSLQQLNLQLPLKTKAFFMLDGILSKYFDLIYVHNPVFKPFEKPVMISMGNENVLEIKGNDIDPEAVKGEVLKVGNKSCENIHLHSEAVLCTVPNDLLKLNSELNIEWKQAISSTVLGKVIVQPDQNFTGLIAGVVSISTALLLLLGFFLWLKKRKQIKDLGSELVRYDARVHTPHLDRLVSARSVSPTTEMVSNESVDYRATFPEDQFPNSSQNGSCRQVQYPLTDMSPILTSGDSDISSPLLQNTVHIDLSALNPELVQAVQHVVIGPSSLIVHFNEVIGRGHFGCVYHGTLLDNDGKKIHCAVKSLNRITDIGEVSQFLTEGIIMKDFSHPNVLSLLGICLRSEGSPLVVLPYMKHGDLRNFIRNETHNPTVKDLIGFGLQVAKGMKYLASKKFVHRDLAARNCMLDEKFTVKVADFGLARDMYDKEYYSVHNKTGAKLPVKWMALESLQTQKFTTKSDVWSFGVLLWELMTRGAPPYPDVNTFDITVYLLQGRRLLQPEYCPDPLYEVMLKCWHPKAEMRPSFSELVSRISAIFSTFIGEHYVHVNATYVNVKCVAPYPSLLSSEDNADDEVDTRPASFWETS

[16] = molecular target: Tie-2 (Homo sapiens, UniProt Q02763); conditions: Deng et al. 2001; read-out: Km as substrate for Tie-2; cited from earlier work
Sequence of Tie-2 (Q02763 23-1124, species assumed): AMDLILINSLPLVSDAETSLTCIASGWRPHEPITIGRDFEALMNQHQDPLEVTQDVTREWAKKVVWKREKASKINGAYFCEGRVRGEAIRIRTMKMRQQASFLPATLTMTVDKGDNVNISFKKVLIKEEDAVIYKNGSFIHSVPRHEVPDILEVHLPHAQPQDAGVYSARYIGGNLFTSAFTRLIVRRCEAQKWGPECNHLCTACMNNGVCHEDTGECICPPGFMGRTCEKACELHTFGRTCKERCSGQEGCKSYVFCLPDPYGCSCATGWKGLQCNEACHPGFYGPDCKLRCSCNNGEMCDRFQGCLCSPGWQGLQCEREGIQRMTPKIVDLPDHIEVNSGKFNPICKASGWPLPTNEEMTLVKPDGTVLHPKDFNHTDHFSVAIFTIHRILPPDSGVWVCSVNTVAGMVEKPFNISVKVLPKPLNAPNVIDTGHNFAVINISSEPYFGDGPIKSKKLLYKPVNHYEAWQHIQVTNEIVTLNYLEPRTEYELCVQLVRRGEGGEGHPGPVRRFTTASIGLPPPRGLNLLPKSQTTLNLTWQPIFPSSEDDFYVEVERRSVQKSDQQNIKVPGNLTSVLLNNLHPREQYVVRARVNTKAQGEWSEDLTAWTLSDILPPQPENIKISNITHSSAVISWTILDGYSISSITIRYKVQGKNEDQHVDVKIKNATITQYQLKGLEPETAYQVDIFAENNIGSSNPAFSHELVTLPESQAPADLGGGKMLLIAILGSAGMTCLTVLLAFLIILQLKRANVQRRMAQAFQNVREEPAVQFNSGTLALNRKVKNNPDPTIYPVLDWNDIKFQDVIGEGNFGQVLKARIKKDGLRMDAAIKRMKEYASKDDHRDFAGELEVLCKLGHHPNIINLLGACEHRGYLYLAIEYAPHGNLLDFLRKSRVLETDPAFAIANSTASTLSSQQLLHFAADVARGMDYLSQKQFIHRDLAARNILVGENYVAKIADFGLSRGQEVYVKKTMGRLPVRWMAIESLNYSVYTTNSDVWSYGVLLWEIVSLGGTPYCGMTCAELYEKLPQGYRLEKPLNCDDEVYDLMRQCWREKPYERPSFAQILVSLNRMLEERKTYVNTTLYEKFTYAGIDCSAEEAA

[17] = molecular target: Akt (Homo sapiens, UniProt P31749); conditions: Akt peptide substrates, Alessi et al. 1996; cited from earlier work
Sequence of Akt (P31749 whole entry): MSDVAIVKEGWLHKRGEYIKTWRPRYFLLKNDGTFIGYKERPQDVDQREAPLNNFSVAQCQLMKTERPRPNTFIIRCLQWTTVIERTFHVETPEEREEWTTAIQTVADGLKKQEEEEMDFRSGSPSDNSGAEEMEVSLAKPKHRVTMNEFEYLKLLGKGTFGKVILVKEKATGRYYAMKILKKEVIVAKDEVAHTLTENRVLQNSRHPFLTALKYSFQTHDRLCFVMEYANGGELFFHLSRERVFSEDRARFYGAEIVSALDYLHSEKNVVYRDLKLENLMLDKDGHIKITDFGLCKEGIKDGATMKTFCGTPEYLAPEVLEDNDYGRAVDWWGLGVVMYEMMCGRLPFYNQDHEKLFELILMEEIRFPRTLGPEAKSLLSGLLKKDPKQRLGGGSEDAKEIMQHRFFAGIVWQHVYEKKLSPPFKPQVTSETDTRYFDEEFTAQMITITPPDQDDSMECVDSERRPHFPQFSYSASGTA

[18] = read-out: HFF (EC50 Ave) ML, HFF, ML (monolayer)
[19] = read-out: MCF7 (EC50 Ave) SA, MCF7, SA (soft agar)
[20] = read-out: HT29 (EC50 Ave) SA, HT29, SA (soft agar)
[21] = read-out: HFFMonolayer EC50, HFF normal cells, monolayer, 72 hours, mean ± SD
[22] = read-out: MCF-7 Soft Agar EC50, MCF-7 tumor cells, soft agar, 10-14 days, mean ± SD
[23] = read-out: HT-29 Soft Agar EC50, HT-29 tumor cells, soft agar, 10-14 days, mean ± SD
[24] = MCF7, read-out: MCF7 (EC50 Ave) SA
[25] = HT-29, read-out: HT29 (EC50 Ave) SA

Compound | Ave. MPA Act. [2] | EC50 [3] | EC50 [4] | Relative Percent Remaining at 0 hr [5] | remaining at 4 h, 10 μM [5] | remaining at 8 h, 10 μM [5] | remaining at 24 h, 10 μM [5] | remaining at 72 h, 10 μM [5] | half-life at 10 μM [5] | EC50 [6] | EC50 [7, 18] | EC50 [8, 19] | EC50 [9, 20] | Cytotoxic Selectivity Index HFF/HT29 [11] | also measured
CC[C@H](C)[C@H](NC(=O)[C@H](Cc1ccc(O)cc1)NC(=O)[C@H](CCC(=O)O)NC(C)=O)C(=O)N[C@@H](Cc1ccc(O)cc1)C(=O)NCC(=O)N[C@@H](CO)C(=O)N[C@@H](Cc1ccccc1)C(=O)N[C@@H](CCCCN)C(=O)NCCCOCCOCCOCCCNC(=O)O[C@H]1C(=O)[C@@]2(C)[C@H]([C@H](OC(=O)c3ccccc3)[C@]3(O)C[C@H](OC(=O)[C@H](O)[C@@H](NC(=O)c4ccccc4)c4ccccc4)C(C)=C1C3(C)C)[C@]1(OC(C)=O)CO[C@@H]1C[C@@H]2O | B (B=50-80) | > 100 nM | > 100 nM | 100% | 95% | 99% | 69% | 22% | 32 h | > 100 nM | > 100 nM | > 100 nM | > 100 nM | 20.5 | Average src kinase activity [1]: C (C>40); selectivity ratio [10]: 24.1
CC[C@H](C)[C@H](NC(=O)[C@H](Cc1ccc(O)cc1)NC(=O)OCc1ccccc1)C(=O)N[C@@H](Cc1ccc(O)cc1)C(=O)NCC(=O)N[C@@H](CO)C(=O)N[C@@H](Cc1ccccc1)C(=O)N[C@@H](CCCCN)C(=O)NCCOCCOCCOCCNC(=O)[C@@]1(O)[C@H](O)[C@]2(CC)C=CCN3CC[C@@]4(c5cc([C@@]6(C(=O)OC)C[C@@H]7CN(CCc8c6[nH]c6ccccc86)C[C@](O)(CC)C7)c(OC)cc5N(C)[C@@H]14)[C@@H]32 [CBz-YIYGSFK-PEG(11)-3Am-VBL] |  | > 100 nM | > 100 nM | 100% | 88% | 102% | 100% | 61% | > 72 h | > 100 nM | > 100 nM | > 100 nM | > 100 nM | 1.4 | EC50 [7, 21]: 655 ± 186 nM; EC50 [8, 22]: 156 ± 37 nM; EC50 [9, 23]: 464 ± 351 nM; Cytotoxic Selectivity Index HFF/MCF7 [11]: 4.2
CC(=O)O[C@H]1C(=O)[C@@]2(C)[C@H]([C@H](OC(=O)c3ccccc3)[C@]3(O)C[C@H](OC(=O)[C@H](O)[C@@H](NC(=O)c4ccccc4)c4ccccc4)C(C)=C1C3(C)C)[C@]1(OC(C)=O)CO[C@@H]1C[C@@H]2O [Paclitaxel (PXL)] | C (C>80) |  |  |  |  |  |  |  |  |  |  |  |  |  | EC50 ([3]; Homo sapiens): < 20 nM; EC50 ([4]; Homo sapiens, HT-29): < 20 nM; EC50 ([6]; Homo sapiens): < 20 nM; EC50 ([12]; read-out: HFF (EC50 Ave) ML): < 20 nM; EC50 [13, 24]: < 20 nM; EC50 [14, 25]: < 20 nM
CC[C@H](C)[C@H](NC(=O)[C@H](Cc1ccc(O)cc1)NC(=O)C(C)(C)C)C(=O)N[C@@H](Cc1ccc(O)cc1)C(=O)NCC(=O)N[C@@H](CO)C(=O)N[C@@H](Cc1ccccc1)C(=O)N[C@@H](CCCNC(=N)N)C(=O)NCCCOCCOCCOCCCNC(=O)O[C@H]1C(=O)[C@@]2(C)[C@H]([C@H](OC(=O)c3ccccc3)[C@]3(O)C[C@H](OC(=O)[C@H](O)[C@@H](NC(=O)c4ccccc4)c4ccccc4)C(C)=C1C3(C)C)[C@]1(OC(C)=O)CO[C@@H]1C[C@@H]2O [Pv-YIYGSFR-PEG(13)-10Ca-PXL] | B (B=50-80) | > 100 nM | > 100 nM | 100% | 73% | 63% | 63% | 64% | > 72 h | > 100 nM | > 100 nM | 20 to 100 nM | > 100 nM | 12.3 | EC50 [7, 21]: 2140 nM; EC50 [8, 22]: 80 ± 13 nM; EC50 [9, 23]: 175 ± 43 nM; Cytotoxic Selectivity Index HFF/MCF7 [11]: 26.6
CC[C@]1(O)C[C@@H]2CN(CCc3c([nH]c4ccccc34)[C@@](C(=O)OC)(c3cc4c(cc3OC)N(C)[C@H]3[C@@](O)(C(=O)OC)[C@H](OC(C)=O)[C@]5(CC)C=CCN6CC[C@]43[C@@H]65)C2)C1 [Vinblastine (VBL)] | C (C>80) |  |  |  |  |  |  |  |  |  |  |  |  |  | EC50 ([3]; Homo sapiens): < 20 nM; EC50 ([4]; Homo sapiens, HT-29): < 20 nM; EC50 ([6]; Homo sapiens): < 20 nM; EC50 ([12]; read-out: HFF (EC50 Ave) ML): < 20 nM; EC50 [13, 24]: < 20 nM; EC50 [14, 25]: < 20 nM
CC[C@]1(O)C[C@@H]2CN(CCc3c([nH]c4ccccc34)[C@@](C(=O)OC)(c3cc4c(cc3OC)N(C)[C@H]3[C@@](O)(C(=O)OC)[C@H](OC(C)=O)[C@]5(CC)C=CCN6CC[C@]43[C@@H]65)C2)C1 [Vinblastine, reference compound] |  |  |  | 100% | 95% | 95% | 87% | 67% | > 72 h |  |  |  |  |  | EC50 ([12]; 72 h, read-out: HFFMonolayer EC50): 1.5 ± 0.5 nM; EC50 ([13]; MCF7, read-out: MCF-7 Soft Agar EC50): 7 ± 5 nM; EC50 ([14]; HT-29, read-out: HT-29 Soft Agar EC50): 7 ± 7 nM; selectivity ratio [10]: 0.2
DSDVHVNATYVNVKCVAP [18 amino acid peptide substrate for Met kinase] |  |  |  |  |  |  |  |  |  |  |  |  |  |  | Km [15]: 67 µM
RLVAYEGWV [nine amino acid peptide substrate for Tie-2] |  |  |  |  |  |  |  |  |  |  |  |  |  |  | Km [16]: 119 µM
RPRAATF [peptide substrate for Akt from the literature] |  |  |  |  |  |  |  |  |  |  |  |  |  |  | specificity with respect to related MAP kinase and S6 kinase [17]: exhibit specificity
RPRTSTF [peptide substrate for Akt from the literature] |  |  |  |  |  |  |  |  |  |  |  |  |  |  | specificity with respect to related MAP kinase and S6 kinase [17]: exhibit specificity
